In patent publication US8461328B2, “Tricyclic heterocyclic compounds, compositions and methods of use thereof” (Genentech, Inc., priority 2010, dated 2013) one finds Ki data, which are given here for 25 compounds.

What all share (format): biochemical
One test has as its target T1, JAK1 (Homo sapiens, UniProt P23458).
T1 construct: made in house; host or cells: SF9 insect cells (baculovirus)
Nature of the test: JAK1 inhibition (Table 4). Conditions: read-out: JAK1 Ki.

The next test addresses T2, JAK2 (Homo sapiens, UniProt O60674).
T2 construct: made in house; host or cells: SF9 insect cells (baculovirus)
As to the kind of experiment: JAK2 inhibition (Table 4). As to conditions: read-out: JAK2 Ki.

Another test has as its target T3, JAK3 (Homo sapiens, UniProt P52333).
T3 construct: made in house; host or cells: SF9 insect cells (baculovirus)
As to the kind of experiment: JAK3 inhibition (Table 4). Conditions: read-out: JAK3 Ki.

For the next test, the target named is T4, TYK2 (Homo sapiens, UniProt P29597).
T4 construct: made in house; host or cells: SF9 insect cells (baculovirus)
T4 sequence (P29597 873-1187): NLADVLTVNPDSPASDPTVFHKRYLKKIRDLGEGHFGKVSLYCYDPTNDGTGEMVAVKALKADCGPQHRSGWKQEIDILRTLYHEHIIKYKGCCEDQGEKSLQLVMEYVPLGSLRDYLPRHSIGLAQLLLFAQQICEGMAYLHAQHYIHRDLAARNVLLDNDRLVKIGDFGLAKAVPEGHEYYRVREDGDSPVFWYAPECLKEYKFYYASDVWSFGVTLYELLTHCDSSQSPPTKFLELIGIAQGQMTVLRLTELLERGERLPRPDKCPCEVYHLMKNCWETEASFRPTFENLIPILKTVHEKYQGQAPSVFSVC
Nature of the test: TYK2 inhibition (Table 4).

T1 sequence (P23458 852-1154): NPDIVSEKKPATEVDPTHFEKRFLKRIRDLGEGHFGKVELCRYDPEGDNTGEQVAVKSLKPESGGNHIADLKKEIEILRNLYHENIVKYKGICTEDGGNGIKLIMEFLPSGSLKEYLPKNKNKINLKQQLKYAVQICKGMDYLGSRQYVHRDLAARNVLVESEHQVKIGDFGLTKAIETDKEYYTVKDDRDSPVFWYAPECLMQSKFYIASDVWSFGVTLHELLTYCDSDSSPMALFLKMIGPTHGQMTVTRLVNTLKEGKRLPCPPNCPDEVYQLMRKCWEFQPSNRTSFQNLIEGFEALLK
T2 sequence (O60674 812-1132): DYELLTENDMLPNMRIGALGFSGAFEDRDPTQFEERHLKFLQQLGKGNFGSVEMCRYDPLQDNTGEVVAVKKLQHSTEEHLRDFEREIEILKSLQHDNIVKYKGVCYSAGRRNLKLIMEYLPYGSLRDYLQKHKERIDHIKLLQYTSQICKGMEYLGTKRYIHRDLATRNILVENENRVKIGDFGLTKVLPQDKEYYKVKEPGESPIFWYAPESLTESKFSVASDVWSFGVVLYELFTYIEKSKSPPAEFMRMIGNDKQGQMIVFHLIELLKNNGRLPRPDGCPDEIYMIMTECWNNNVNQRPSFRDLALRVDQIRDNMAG
T3 sequence (P52333 783-1124): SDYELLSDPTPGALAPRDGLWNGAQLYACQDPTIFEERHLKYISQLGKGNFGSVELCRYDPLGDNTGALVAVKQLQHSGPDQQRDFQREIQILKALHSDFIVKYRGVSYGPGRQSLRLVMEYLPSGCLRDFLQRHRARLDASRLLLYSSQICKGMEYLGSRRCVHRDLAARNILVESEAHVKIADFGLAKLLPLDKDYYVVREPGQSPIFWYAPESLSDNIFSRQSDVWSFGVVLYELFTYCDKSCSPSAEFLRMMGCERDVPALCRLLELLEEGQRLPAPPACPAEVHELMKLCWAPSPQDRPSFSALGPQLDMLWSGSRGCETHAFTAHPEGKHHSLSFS

By Ki is commonly meant the dissociation constant of the complex between target and ligand, obtained from inhibition or displacement. As for `O[C@@H]1CC[C@H](n2cnc3cnc4[nH]ccc4c32)C1` [Example 710, (1R,3S)-3-(6H-1,2,3,5,6-Tetraaza-as-indacen-1-yl)-cyclopentanol], the Ki at JAK1 worked out at 6.85 nM; at JAK2 it was 34.3 nM; on JAK3 it was 45 nM; at TYK2 it was 50.6 nM.

For `O[C@@H]1CC[C@@H](n2cnc3cnc4[nH]ccc4c32)C1` [Example 711, (1R,3R)-3-(6H-1,2,3,5,6-Tetraaza-as-indacen-1-yl)-cyclopentanol], the Ki on JAK1 was 14.1 nM; on JAK2, 36.9 nM; at JAK3 it was 15.8 nM; on TYK2 it was 70.3 nM.

With `O[C@H]1CC[C@H](n2cnc3cnc4[nH]ccc4c32)C1` [Example 712, (1S,3S)-3-(6H-1,2,3,5,6-Tetraaza-as-indacen-1-yl)-cyclopentanol], the Ki on JAK1 is 15.3 nM; on JAK2, 44.9 nM; on JAK3, 29.7 nM; on TYK2, 114 nM.

For the compound `C[C@]1(O)CC[C@H](n2nnc3cnc4[nH]ccc4c32)CC1` [Example 713, Trans-1-Methyl-4-(6H-1,2,3,5,6-pentaaza-as-indacen-1-yl)-cyclohexanol], the inhibitory constant (Ki) on JAK1 worked out at 8.14 nM; at JAK2, 15 nM; at JAK3, 202 nM; on TYK2, 62.7 nM.

In the case of `C[C@]1(O)CC[C@@H](n2nnc3cnc4[nH]ccc4c32)CC1` [Example 714, Cis-1-Methyl-4-(6H-1,2,3,5,6-pentaaza-as-indacen-1-yl)-cyclohexanol], the Ki at JAK1 came out at 5.29 nM; at JAK2 it was 9.89 nM; at JAK3, 105 nM; at TYK2 it was 28.6 nM.

For the compound `OC[C@]1(O)CC[C@H](n2nnc3cnc4[nH]ccc4c32)CC1` [Example 715, Trans-1-Hydroxymethyl-4-(6H-1,2,3,5,6-pentaaza-as-indacen-1-yl)-cyclohexanol], the Ki at JAK1 is 11.5 nM; at JAK2, 16.9 nM; at JAK3 it was 109 nM; on TYK2, 58.2 nM.

Consider `OC[C@]1(O)CC[C@@H](n2nnc3cnc4[nH]ccc4c32)CC1` [Example 716, Cis-1-Hydroxymethyl-4-(6H-1,2,3,5,6-pentaaza-as-indacen-1-yl)-cyclohexanol], for which the Ki was found to be 10.6 nM at JAK1, 23.3 nM on JAK2, 167 nM on JAK3 and 74.3 nM on TYK2.

For the compound `Cc1nc2cnc3[nH]ccc3c2n1[C@H]1CC[C@@H](NCC(F)(F)F)C1` [Example 719, [(1R,3S)-3-(2-Methyl-6H-1,3,5,6-tetraaza-as-indacen-1-yl)-cyclopentyl]-(2,2,2-trifluoro-ethyl)-amine], the inhibition constant (Ki) on JAK1 stood at 4.07 nM; at JAK2 it was 23.2 nM; on JAK3, 22 nM; at TYK2, 30.4 nM.

Regarding `Cc1nc2cnc3[nH]ccc3c2n1[C@@H]1CC[C@@H](NCC(F)(F)F)C1` [Example 720, [(1R,3R)-3-(2-Methyl-6H-1,3,5,6-tetraaza-as-indacen-1-yl)-cyclopentyl]-(2,2,2-trifluoro-ethyl)-amine], the Ki was determined as 6.6 nM at JAK1, 18.3 nM at JAK2, 88.1 nM on JAK3 and 54.5 nM on TYK2.

`Cc1nc2cnc3[nH]ccc3c2n1[C@H]1CC[C@@H](NCCC#N)C1` [Example 723, 3-[(1R,3S)-3-(2-Methyl-6H-1,3,5,6-tetraaza-as-indacen-1-yl)-cyclopentylamino]-propionitrile]: the inhibition constant (Ki) came to 6.22 nM on JAK1, 29.7 nM on JAK2, 4.88 nM on JAK3 and 94.6 nM on TYK2.

Regarding `Cc1nc2cnc3[nH]ccc3c2n1[C@@H]1CC[C@@H](NCCC#N)C1` [Example 724, 3-[(1R,3R)-3-(2-Methyl-6H-1,3,5,6-tetraaza-as-indacen-1-yl)-cyclopentylamino]-propionitrile], the Ki at JAK1 is 6.27 nM; at JAK2, 24.3 nM; at JAK3, 16 nM; on TYK2, 78.9 nM.

Regarding `Cc1nc2cnc3[nH]ccc3c2n1[C@@H]1CC[C@@H](NC(C)CC#N)C1` (stereo partly drawn) [Example 725, 3-[(1R,3R)-3-(2-Methyl-6H-1,3,5,6-tetraaza-as-indacen-1-yl)-cyclopentylamino]-butyronitrile], the Ki was found to be 22.1 nM on JAK1, 49.5 nM at JAK2, 32.5 nM on JAK3 and 211 nM at TYK2.

`CC(C)(C)OC(=O)N[C@@H]1CC[C@@H](n2nnc3cnc4[nH]ccc4c32)C1` [Example 727, [(1R,3R)-3-(6H-1,2,3,5,6-Pentaaza-as-indacen-1-yl)-cyclopentyl]-carbamic acid tert-butyl ester]: the Ki on JAK1 stood at 1.76 nM; at JAK2, 7.73 nM; at JAK3, 74.4 nM; on TYK2, 143 nM.

Consider `Cc1nc2cnc3[nH]ccc3c2n1[C@H]1CC[C@@H](NC(=O)CC(F)(F)F)C1` [Example 731, 3,3,3-Trifluoro-N-[(1R,3S)-3-(2-methyl-6H-1,3,5,6-tetraaza-as-indacen-1-yl)-cyclopentyl]-propionamide], for which the inhibition constant Ki was determined as 0.58 nM on JAK1, 5.54 nM on JAK2, 9.13 nM on JAK3 and 12.4 nM on TYK2.

With `COC(=O)N[C@@H]1CC[C@@H](n2c(C)nc3cnc4[nH]ccc4c32)C1` [Example 735, [(1R,3R)-3-(2-Methyl-6H-1,3,5,6-tetraaza-as-indacen-1-yl)-cyclopentyl]-carbamic acid methyl ester], the inhibitory constant (Ki) worked out at 1.52 nM on JAK1, 5.67 nM at JAK2, 54.6 nM on JAK3 and 19.2 nM at TYK2.

With `Cc1nc2cnc3[nH]ccc3c2n1C1(C)CCN(S(=O)(=O)c2cccnc2)CC1` [Example 740, 2-Methyl-1-[4-methyl-1-(pyridine-3-sulfonyl)-piperidinyl-4-yl]-1,6-dihydro-1,3,5,6-tetraaza-as-indacene], the Ki at JAK1 was 21.7 nM; on JAK2, 97.7 nM; at JAK3 it was 404 nM; at TYK2, 296 nM.

In the case of `Cc1nc2cnc3[nH]ccc3c2n1C1(C)CCN(C(=O)CC#N)CC1` [Example 741, 3-[4-Methyl-4-(2-methyl-6H-1,3,5,6-tetraaza-as-indacen-1-yl)-piperidin-1-yl]-3-oxo-propionitrile], the inhibitory constant (Ki) on JAK1 was 103 nM; at JAK2, 528 nM; on JAK3, 1130 nM; on TYK2 it was 568 nM.

On to `C[C@@H](O)c1nc2cnc3[nH]ccc3c2n1C1CCC(CC#N)CC1` (stereo partly drawn) [Example 743, {4-[2-((R)-1-Hydroxy-ethyl)-6H-1,3,5,6-tetraaza-as-indacen-1-yl]cyclohexyl}acetonitrile], for which the Ki on JAK1 was 0.59 nM; on JAK2, 3.68 nM; on JAK3 it was 14.1 nM; at TYK2 it was 1.23 nM.

As for `O=C(NC1CCC(n2cnc3cnc4[nH]ccc4c32)CC1)OCc1cccnc1` (stereo not shown) [Example 744, [4-(6H-1,3,5,6-tetraaza-as-indacen-1-yl)-cyclohexyl]-carbamic acid pyridin-3-ylmethyl ester], the inhibition constant (Ki) on JAK1 amounted to 7.15 nM; on JAK2, 17.8 nM; at JAK3, 89.2 nM; on TYK2, 86 nM.

As for `CN(CC(F)(F)F)C(=O)NC1CCC(n2cnc3cnc4[nH]ccc4c32)CC1` (stereo not shown) [Example 745, 1-methyl-3-[4-(6H-1,3,5,6-tetraaza-as-indacen-1-yl)-cyclohexyl]-1-(2,2,2-trifluoro-ethyl)-urea], the Ki at JAK1 stood at 3.22 nM; at JAK2, 11.6 nM; on JAK3, 37.1 nM; on TYK2 it was 113 nM.

Turning to `O=C(NC1CCC(n2cnc3cnc4[nH]ccc4c32)CC1)N1CCC1` (stereo not shown) [Example 746, azetidine-1-carboxylic acid [4-(6H-1,3,5,6-tetraaza-as-indacen-1-yl)-cyclohexyl]-amide], the Ki on JAK1 was determined as 13.1 nM; on JAK2 it was 21.3 nM; on JAK3, 183 nM; at TYK2, 75.4 nM.

`CN(CC(F)F)C(=O)NC1CCC(n2cnc3cnc4[nH]ccc4c32)CC1` (stereo not shown) [Example 747, 1-(2,2-difluoro-ethyl)-1-methyl-3-[4-(6H-1,3,5,6-tetraaza-as-indacen-1-yl)-cyclohexyl]-urea]: the Ki on JAK1 is 4.22 nM; at JAK2, 11.7 nM; at JAK3, 52.5 nM; on TYK2, 72.7 nM.

`Cc1nc2cnc3[nH]ccc3c2n1C1CCC(NC(=O)N2CC(F)(F)C2)CC1` (stereo not shown) [Example 748, 3,3-difluoro-azetidine-1-carboxylic acid [4-(2-methyl-6H-1,3,5,6-tetraaza-as-indacen-1-yl)-cyclohexyl]-amide]: the inhibitory constant (Ki) came out at 10.7 nM on JAK1, 36.6 nM at JAK2, 150 nM on JAK3 and 444 nM on TYK2.

Take `Cc1nc2cnc3[nH]ccc3c2n1C1CCC(NC(=O)N(C)CC(F)(F)F)CC1` (stereo not shown) [Example 749, 1-methyl-3-[4-(2-methyl-6H 1,3,5,6-tetraaza-as-indacen-1-yl)-cyclohexyl]-1-(2,2,2-trifluoro-ethyl)-urea]: the inhibition constant (Ki) was determined as 2.83 nM on JAK1, 15.8 nM at JAK2, 8.96 nM on JAK3 and 177 nM at TYK2.

On to `Cc1nc2cnc3[nH]ccc3c2n1C1CCC(NC(=O)N(C)CC(F)F)CC1` (stereo not shown) [Example 750, 1-(2,2-difluoro-ethyl)-1-methyl-3-[4-(2-methyl-6H-1,3,5,6-tetraaza-as-indacen-1-yl)-cyclohexyl]-urea], for which the Ki on JAK1 is 4.74 nM; on JAK2, 22.1 nM; at JAK3 it was 17.6 nM; on TYK2 it was 130 nM.
